Tests used:
HIV-1 strain NL4-3 = assay: HIV assay; type: cell-based; details: compared to solvent; for inhibition of HIV infection: 30 μM, HeLa TZM cells; for inhibition at 30 µM: Human immunodeficiency virus 1, NL43, HeLa TZM cells, read-out: inhibition of HIV infection
Raft liposomes = assay: Disrafter-Liposome Raftophile Assay (D-LRA); details: for disrafting activity in the DLRA (in words): significance above 25% or below −25%; for % disrafting in the DLRA with perylene: indicator perylene 2 μM; for % disrafting in the DLRA with perylene / % disrafting in the DLRA with GS-96: test compound 100 μM final, negative = raft augmentation; for % disrafting in the DLRA: indicator not stated; for % disrafting in the DLRA with GS-96: indicator GS-96 0.2 μM
[1] = test system: vesicular stomatitis virus (VSV); type: cell-based
Wild type SV40 viruses = assay: SV40 infection assay; type: cell-based, Simian Virus 40; details: HeLa cells
Influenza virus = assay: Virus budding assay (influenza assay); type: cell-based; details: MDCK cells; test compound 1 h; below 100% = inhibition
PR8 virus = assay: microbe, parasite or virus in culture; type: cell-based, influenza virus
[2] = test system: Rat basophilic leukemia (RBL-2H3) cells; assay: Degranulation assay (β-hexosaminidase release); type: cell-based; details: 100 μM, compared to solvent vehicle
Protocol: The assay measures release of β-hexosaminidase as a marker of release of various preformed pharmacological agents in response to clustering of the high affinity IgE receptor (FcεRI) by means of multivalent antigen-IgE complexes. Rat basophilic leukemia (RBL-2H3) cells, a commonly used model of mast cell degranulation, are sensitized with anti-DNP specific IgE and challenged with multivalent DNP-BSA. The release of β-hexosaminidase into the supernatant is measured by enzymatic conversion of the fluorogenic substrate 4-methylumbelliferyl-N-acetyl-[…] to N-acetyl-β-D-glucosamine and highly fluorescent methylumbelliferone and quantified by fluorescence detection in a Tecan Safire™ plate reader. • 2. Materials […]
Two to 24 hours before incubation with test compounds the medium was removed and cells were sensitized with 0.4 μg/ml anti-DNP IgE in fresh medium. […] Hexosaminidase activity in supernatants and lysates was measured by incubating 25 μl aliquots with 100 μl MUG substrate solution in a 96-well plate at 37° C. for 30 min. […] Fluorescence was measured in a Tecan Safire™ plate reader at 365 nm excitation and 440 nm emission settings.
Each compound is tested in duplicates in at least three independent experiments. β-hexosaminidase release is calculated after subtraction of unspecific release (release without addition of antigen) using the formula: […]

[3] = Betapolyomavirus macacae, M-HeLa, 30 μM, compared to solvent
[4] = unidentified influenza virus, PR8, MDCK, read-out: inhibition of PR8 virus replication

Row | Molecule | disrafting activity in the DLRA (in words) (Raft liposomes) | inhibitory effect on viral infection in the VSV counterscreen (in words) [1] | % disrafting in the DLRA with perylene (Raft liposomes) | % disrafting in the DLRA with GS-96 (Raft liposomes) | further results
1 | CCCCCCCCCCCC=C1CC[C@H]2[C@@H]3CCC4CC(=O)CC[C@]4(C)[C@H]3CC[C@]12C (relative stereo) [Compound 10ak, cis-Δ^17(20)-Dodecylidene-3-androstanone] | high negative or positive values | – | – | – | inhibition of HIV infection (HIV-1 strain NL4-3): 23%
2 | C/C=C1/CC[C@H]2[C@@H]3CCc4cc(OC(C)=O)ccc4[C@H]3CC[C@]12C (relative stereo) [Compound 10db, cis-Δ^17(20)-19-Norpregna-1,3,5(10),17(20)-tetraen-3-yl acetate] | high negative or positive values | no inhibitory effect on viral infection at all | −536% | – | inhibition of HIV infection (HIV-1 strain NL4-3): 27%; inhibition of SV40 infection (Wild type SV40 viruses; 30 μM, compared to solvent): 52.2%
3 | C[C@]12CC[C@@H](O)C[C@@H]1CC[C@@H]1[C@@H]2CC[C@]2(C)C(=O)CC[C@@H]12 [Androsterone, reference compound] | do not show significant disrafting activity | – | – | – | % disrafting in the DLRA (Raft liposomes): 0%
4 | CO[C@@H]1CC[C@@]2(C)[C@@H](CC[C@H]3[C@@H]4CCC[C@@]4(C)CC[C@@H]32)C1 [Compound 10ac, 3alpha-Methoxy-5alpha-androstane] | high negative or positive values | no inhibitory effect on viral infection at all | about +68% | – | inhibition at 30 µM (Wild type SV40 viruses; [3]): 12.9%
5 | C/C=C1/CCC2C3CCC4C[C@@H](O)CC[C@]4(C)C3CC[C@]12C (stereo partly drawn) [Compound 10ad, cis-Δ^17(20)-5alpha-Pregnen-3beta-ol] | high negative or positive values | no inhibitory effect on viral infection at all | about −105% | about −66% | virus budding, percentage with respect to an untreated control (Influenza virus): 61%; inhibition at 20 µM (PR8 virus; [4]): 59.6%; inhibition at 30 µM (Wild type SV40 viruses; [3]): 15.2%
6 | C/C=C1/CCC2C3CCC4CC(=O)CC[C@]4(C)C3CC[C@]12C (stereo partly drawn) [Compound 10ae, cis-Δ^17(20)-5alpha-Pregnen-3-one] | high negative or positive values | – | about −43% | ~−20% | virus budding, percentage with respect to an untreated control (Influenza virus): about 140%; inhibition at 50 µM (PR8 virus; [4]): 32.9%
7 | CC[C@H]1CC[C@H]2[C@@H]3CC[C@H]4C[C@@H](O)CC[C@]4(C)[C@H]3CC[C@]12C [Compound 10af, 5alpha-Pregnan-3beta-ol] | high negative or positive values | no inhibitory effect on viral infection at all | −217% | −74.7% | inhibition at 50 µM (PR8 virus; [4]): 27.9%; inhibition at 30 µM (Wild type SV40 viruses; [3]): 18.9%
8 | CC[C@H]1CCC2C3CCC4C[C@H](N=[N+]=[N-])CC[C@]4(C)C3CC[C@@]21C (stereo partly drawn) [Compound 10ag, 5alpha-Pregnan-3alpha-azide] | high negative or positive values | – | −71.8% | −187% | –
9 | C/C=C1/CCC2C3CCc4cc(O)ccc4C3CC[C@]12C (stereo partly drawn) [Compound 10da, cis-Δ^17(20)-19-Norpregna-1,3,5(10),17(20)-tetraen-3-ol] | high negative or positive values | no inhibitory effect on viral infection at all | −729% | – | inhibition at 30 µM (HIV-1 strain NL4-3): 18%; inhibition at 15 µM (Wild type SV40 viruses; Betapolyomavirus macacae, M-HeLa, 15 μM): 29.6%
10 | C/C=C1/CCC2C3CCc4cc(OC)ccc4C3CC[C@]12C (stereo partly drawn) [Compound 10dc, cis-Δ^17(20)-19-Norpregna-1,3,5(10),17(20)-tetraen-3-yl methyl ether] | high negative or positive values | – | −139% | – | inhibition at 30 µM (HIV-1 strain NL4-3): 38%
11 | CC(C)CCC[C@@H](C)[C@H]1CC[C@H]2[C@@H]3CC=C4C[C@@H](O)CC[C@]4(C)[C@H]3CC[C@]12C [cholesterol, reference compound] | do not show significant disrafting activity | – | – | – | % disrafting in the DLRA (Raft liposomes): 0%
12 | C[C@]12CC[C@H](O)C[C@@H]1CC[C@@H]1[C@@H]2CC[C@]2(C)C(=O)CC[C@@H]12 [epiandrosterone, reference compound] | do not show significant disrafting activity | – | – | – | % disrafting in the DLRA (Raft liposomes): 0%
13 | cis-Δ^17(20)-Dodecylidene-3alpha-aminoandrostan [Compound 10al] | high negative or positive values | – | −216% | – | inhibition of release of β-hexosaminidase [2]: 61%; inhibition of PR8 virus replication (PR8 virus; 12.5 μM, MDCK cells): 54%

Reference: patent US20080255076A1, “Steroid-Derived Pharmaceutical Compositions” (JadoLabs GmbH, priority 2004, published 2008)
